Laboratory results as given in ChEMBL document CHEMBL3046320, “Synthesis and evaluation of antioxidant activity of 2-styrylchromones” (Med Chem Res, 2013).

These molecules were tested on Radical scavenging activity (assay: Antioxidant activity assessed as DPPH radical scavenging activity by DPPH method).
Format: functional
Set-up: concentration or dose not given beside the values
In the case of `COc1ccc(/C=C/c2cc(=O)c3cc(Cl)c(I)cc3o2)cc1`, the Activity is reported as 69.1%. Molecule `COc1ccc(/C=C/c2cc(=O)c3ccc(I)cc3o2)cc1` has an Activity of 66.8%. `C/C(=C\c1cc(=O)c2ccc(I)cc2o1)c1ccccc1` showed an Activity of 69.6%. `C/C(=C\c1cc(=O)c2ccccc2o1)c1ccccc1` was tested, and the Activity was 65.8%. `O=c1cc(/C=C/c2ccccc2)oc2cc(I)c(Cl)cc12` was tested, and the Activity was 67.2%. Molecule `O=c1cc(/C=C/c2ccccc2)oc2ccccc12` has an Activity of 64.4%. Molecule `O=c1cc(/C=C/c2ccccc2)oc2cc(I)ccc12` has an Activity of 65%. For `COc1ccc(/C=C/c2cc(=O)c3cc(Br)ccc3o2)cc1`, the Activity was 60.9%. Molecule `C/C(=C\c1cc(=O)c2cc(Cl)c(I)cc2o1)c1ccccc1` has an Activity of 71.4%. In the case of `COc1ccc(/C=C/c2cc(=O)c3c(O)cccc3o2)cc1`, the Activity is reported as 71.1%.
